Results reported in PubChem BioAssay (NCI).
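How tested: cells in 96-well plates exposed to compound for 48 hours at five concentrations. Here, GI50 denotes the concentration required for 50% inhibition of growth. TGI is the concentration that stops growth completely.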

Key:
Test in all cases: growth of human tumour cells (NCI), 48 h
MCF7 breast = system: MCF7 breast
HCC-2998 colon = system: HCC-2998 colon
NCI-H522 lung = system: NCI-H522 lung
SK-MEL-2 melanoma = system: SK-MEL-2 melanoma
KM12 colon = system: KM12 colon
IGROV1 ovarian = system: IGROV1 ovarian
HOP-62 NSCLC = system: HOP-62 NSCLC
HCT-116 colon = system: HCT-116 colon
OVCAR-3 ovarian = system: OVCAR-3 ovarian
NCI-H226 lung = system: NCI-H226 lung
MOLT-4 leukemia = system: MOLT-4 leukemia
A498 renal = system: A498 renal
OVCAR-8 ovarian = system: OVCAR-8 ovarian
OVCAR-5 ovarian = system: OVCAR-5 ovarian
SW-620 colon = system: SW-620 colon
SNB-19 CNS = system: SNB-19 CNS
LOX IMVI melanoma = system: LOX IMVI melanoma
U251 CNS = system: U251 CNS
SK-OV-3 ovarian = system: SK-OV-3 ovarian
TK-10 renal = system: TK-10 renal
HOP-92 NSCLC = system: HOP-92 NSCLC
HS 578T breast = system: HS 578T breast
UACC-62 melanoma = system: UACC-62 melanoma
MDA-MB-435 = system: MDA-MB-435
UACC-257 melanoma = system: UACC-257 melanoma
OVCAR-4 ovarian = system: OVCAR-4 ovarian
SF-539 CNS = system: SF-539 CNS
MDA-MB-231 breast = system: MDA-MB-231 breast
SK-MEL-28 melanoma = system: SK-MEL-28 melanoma
786-0 renal = system: 786-0 renal
ACHN renal = system: ACHN renal
SNB-75 CNS = system: SNB-75 CNS
SK-MEL-5 melanoma = system: SK-MEL-5 melanoma
UO-31 renal = system: UO-31 renal
T-47D breast = system: T-47D breast
RXF 393 renal = system: RXF 393 renal
SR leukemia = system: SR leukemia
M14 melanoma = system: M14 melanoma
COLO 205 colon = system: COLO 205 colon
MALME-3M melanoma = system: MALME-3M melanoma
CAKI-1 renal = system: CAKI-1 renal
NCI-H460 lung = system: NCI-H460 lung
BT-549 breast = system: BT-549 breast
HL-60(TB) leukemia = system: HL-60(TB) leukemia
K-562 leukemia = system: K-562 leukemia
DU-145 prostate = system: DU-145 prostate
RPMI-8226 leukemia = system: RPMI-8226 leukemia
CCRF-CEM leukemia = system: CCRF-CEM leukemia
HT29 colon = system: HT29 colon
EKVX NSCLC = system: EKVX NSCLC
NCI/ADR-RES ovarian = system: NCI/ADR-RES ovarian
SF-295 CNS = system: SF-295 CNS
SN12C renal = system: SN12C renal
HCT-15 colon = system: HCT-15 colon
SF-268 CNS = system: SF-268 CNS
A549 NSCLC = system: A549 NSCLC
PC-3 prostate = system: PC-3 prostate

Work on `COc1cc2cc(Oc3ccc(NC(=O)c4cccc(C(F)(F)F)c4)cc3)c(C)nc2cc1OCCN1CCCCC1` yielded a GI50 (MCF7 breast) of 14.4 µM, a TGI (MCF7 breast) of 29.7 µM and a GI50 (HCC-2998 colon) of 18.2 µM. The TGI (HCC-2998 colon) was 34.6 µM, the GI50 (NCI-H522 lung) was 16 µM and the TGI (NCI-H522 lung) was 31.3 µM. It also gave a GI50 (SK-MEL-2 melanoma) of over 100 µM, a TGI (SK-MEL-2 melanoma) of over 100 µM and a GI50 (KM12 colon) of 30.3 µM. The TGI (KM12 colon) was over 100 µM, the GI50 (IGROV1 ovarian) was 38.4 µM and the TGI (IGROV1 ovarian) was over 100 µM. For the same molecule, the GI50 (HOP-62 NSCLC) was 33.6 µM, the TGI (HOP-62 NSCLC) was over 100 µM and the GI50 (HCT-116 colon) was 20.6 µM. It also gave a TGI (HCT-116 colon) of 48.9 µM, a GI50 (OVCAR-3 ovarian) of 22.3 µM and a TGI (OVCAR-3 ovarian) of 47.6 µM. It also gave a GI50 (NCI-H226 lung) of over 100 µM, a TGI (NCI-H226 lung) of over 100 µM and a GI50 (MOLT-4 leukemia) of 20.9 µM. It also gave a TGI (MOLT-4 leukemia) of 58.5 µM, a GI50 (A498 renal) of over 100 µM and a TGI (A498 renal) of over 100 µM. For the same molecule, the GI50 (OVCAR-8 ovarian) was 18.2 µM, the TGI (OVCAR-8 ovarian) was 36.7 µM and the GI50 (OVCAR-5 ovarian) was 41.4 µM. The TGI (OVCAR-5 ovarian) was over 100 µM, the GI50 (SW-620 colon) was 21.3 µM and the TGI (SW-620 colon) was 42.8 µM. It also gave a GI50 (SNB-19 CNS) of 34.8 µM, a TGI (SNB-19 CNS) of over 100 µM and a GI50 (LOX IMVI melanoma) of 17.8 µM. For the same molecule, the TGI (LOX IMVI melanoma) was 32.5 µM, the GI50 (U251 CNS) was 17.8 µM and the TGI (U251 CNS) was 34 µM. The GI50 (SK-OV-3 ovarian) was over 100 µM, the TGI (SK-OV-3 ovarian) was over 100 µM and the GI50 (TK-10 renal) was over 100 µM. It also gave a TGI (TK-10 renal) of over 100 µM, a GI50 (HOP-92 NSCLC) of 21.7 µM and a TGI (HOP-92 NSCLC) of over 100 µM. It also gave a GI50 (HS 578T breast) of 19.4 µM, a TGI (HS 578T breast) of 53 µM and a GI50 (UACC-62 melanoma) of 18.8 µM. The TGI (UACC-62 melanoma) was 36.1 µM, the GI50 (MDA-MB-435) was 16.7 µM and the TGI (MDA-MB-435) was 31.4 µM. The GI50 (UACC-257 melanoma) was 17.2 µM, the TGI (UACC-257 melanoma) was 32.2 µM and the GI50 (OVCAR-4 ovarian) was 19.4 µM. The TGI (OVCAR-4 ovarian) was 45.7 µM, the GI50 (SF-539 CNS) was 16.9 µM and the TGI (SF-539 CNS) was 30.9 µM. It also gave a GI50 (MDA-MB-231 breast) of 18.4 µM, a TGI (MDA-MB-231 breast) of 36.9 µM and a GI50 (SK-MEL-28 melanoma) of 17.1 µM. It also gave a TGI (SK-MEL-28 melanoma) of 31.4 µM, a GI50 (786-0 renal) of 16.5 µM and a TGI (786-0 renal) of 32.8 µM. The GI50 (ACHN renal) was 21.5 µM, the TGI (ACHN renal) was 49.2 µM and the GI50 (SNB-75 CNS) was 15 µM. For the same molecule, the TGI (SNB-75 CNS) was 29.9 µM, the GI50 (SK-MEL-5 melanoma) was 17.1 µM and the TGI (SK-MEL-5 melanoma) was 30.9 µM. It also gave a GI50 (UO-31 renal) of 15.4 µM, a TGI (UO-31 renal) of 30 µM and a GI50 (T-47D breast) of 18.1 µM. It also gave a TGI (T-47D breast) of 46.1 µM, a GI50 (RXF 393 renal) of 13.2 µM and a TGI (RXF 393 renal) of 26.6 µM. It also gave a GI50 (SR leukemia) of 18.2 µM, a TGI (SR leukemia) of 46.1 µM and a GI50 (M14 melanoma) of 17.9 µM. The TGI (M14 melanoma) was 35.1 µM, the GI50 (COLO 205 colon) was 16.4 µM and the TGI (COLO 205 colon) was 31 µM. For the same molecule, the GI50 (MALME-3M melanoma) was 18.3 µM, the TGI (MALME-3M melanoma) was 34 µM and the GI50 (CAKI-1 renal) was 16 µM. For the same molecule, the TGI (CAKI-1 renal) was 32.2 µM, the GI50 (NCI-H460 lung) was 19 µM and the TGI (NCI-H460 lung) was 37.3 µM. It also gave a GI50 (BT-549 breast) of over 100 µM, a TGI (BT-549 breast) of over 100 µM and a GI50 (HL-60(TB) leukemia) of 19.6 µM. The TGI (HL-60(TB) leukemia) was 42.4 µM, the GI50 (K-562 leukemia) was 19.3 µM and the TGI (K-562 leukemia) was 47 µM. The GI50 (DU-145 prostate) was 41.6 µM, the TGI (DU-145 prostate) was over 100 µM and the GI50 (RPMI-8226 leukemia) was 20.6 µM. The TGI (RPMI-8226 leukemia) was 52.4 µM, the GI50 (CCRF-CEM leukemia) was 29.8 µM and the TGI (CCRF-CEM leukemia) was over 100 µM. The GI50 (HT29 colon) was 18 µM, the TGI (HT29 colon) was 37.1 µM and the GI50 (EKVX NSCLC) was 31.6 µM. It also gave a TGI (EKVX NSCLC) of over 100 µM, a GI50 (NCI/ADR-RES ovarian) of 33.9 µM and a TGI (NCI/ADR-RES ovarian) of over 100 µM. For the same molecule, the GI50 (SF-295 CNS) was 18.3 µM, the TGI (SF-295 CNS) was 34 µM and the GI50 (SN12C renal) was 17.6 µM. For the same molecule, the TGI (SN12C renal) was 34.4 µM, the GI50 (HCT-15 colon) was 16 µM and the TGI (HCT-15 colon) was 30.9 µM. For the same molecule, the GI50 (SF-268 CNS) was 20.4 µM, the TGI (SF-268 CNS) was 43.4 µM and the GI50 (A549 NSCLC) was 27.5 µM. The TGI (A549 NSCLC) was over 100 µM, the GI50 (PC-3 prostate) was 19 µM and the TGI (PC-3 prostate) was 42 µM.
